Measurements: patent publication US9920074B2 (ACEA BIOSCIENCES INC., priority 2013, dated 2018)
“Also recorded” adds a separate entry of the source.

Columns and labels:
Type in all cases: cell-based
[1] = molecular target: T1, Btk (Tyr223) phosphorylation in Ramos cells (Homo sapiens, UniProt Q06187); assay: Btk Tyr223 phosphorylation inhibition, western blotting assay (Example 72)
T1 construct: endogenous in cells; host or cells: Ramos cells (ATCC)
Method: Ramos cell line was obtained from the American Type Culture Collection and was maintained at 37° C. with 5% CO2, in media supplemented with 10% fetal bovine serum, penicillin (100 units/mL) and streptomycin (100 μg/mL), Goat F(ab′)2 Anti-Human IgM-UNLB was obtained from SouthernBiotech.
Ramos cells were treated with compounds at indicated doses for 45 min at room temperature, followed by stimulation of 12 μg/mL of IgM for 30 min, and then lysed. Western blots were performed on the cell lysate using Phospho-Btk (Tyr223), Phospho-Btk (Tyr551), Btk, Phospho-PLCγ2 (Tyr1217), PLCγ2, Phospho-p44/42 MAPK (Erk1/2) (Thr202/Tyr204) and p44/42 MAPK (Erk1/2) antibodies (Cell Signaling Technology). The density of blotting band was acquired using ImageJ software, and the IC50 of Btk (Tyr223) phosphorylation was fitted using a non-linear regression model by GraphPad Prism version 4.0.

[2] = molecular target: T2, Btk phosphorylation in Ramos cells (Homo sapiens, UniProt Q06187); assay: Pulse chase western blotting assay for irreversibility / binding property; conditions: 100 nM for 45 mins, monitored 4, 6 and 8 h post removal
T2 construct: endogenous in cells; host or cells: Ramos cells (ATCC)
Method: Ramos cells were treated with Compound I-1 at 100 nM for 45 min. Cells were then re-suspended in compound free media and stimulated with 6 μg/ml IgM at 0, 4, 6 or 8 hours after compound removal. Cells were then lysed after 30 mm IgM stimulation. West blotting analysis were then performed.
Ramos cells were treated with Compounds at 100 nM for 45 min. Cells were then re-suspended in compound free media and stimulated with 6 μg/ml anti-IgM at 0, 4, 6 or 8 hours after compound removal. Cells were then lysed after 30 mm anti-IgM stimulation. Western blotting analysis was then performed.

[3] = test system: Stat5 phosphorylation in NK-92 cells; assay: Western blotting assay for Stat5; conditions: NK92, 1 hour, IL-2 stimulation, read-out: Stat5 inhibition
Method in brief: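 NK-92 cells, maintained with IL-2, were pre-treated with compound for 1 h, then stimulated with IL-2 for 15 min. Lysates were western blotted for phospho- and total Jak3 and Stat5. IC50 came from densitometry of phospho-band intensity.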

[4] = molecular target: T1, Btk (Tyr223) phosphorylation in Ramos cells; assay: Western blotting assay for Btk (Example 73); conditions: 45 min, 6 μg/mL anti-IgM, read-out: Btk Inhibition
Method in brief: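 Ramos cells pre-treated with compound for 45 min at room temperature, then stimulated with 6 μg/mL anti-IgM for 30 min and lysed. Phospho-Btk (Tyr223) measured by Western blot band densitometry; IC50 fitted by non-linear regression.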

[5] = molecular target: T3, Jak3 phosphorylation in NK-92 cells (Homo sapiens, UniProt P52333); assay: Western blotting assay for Jak3; conditions: 1 hour, IL-2 stimulation, read-out: Jak3 inhibition
T3 construct: endogenous in cells; host or cells: NK-92 cells (ATCC)
T3 sequence (P52333 1-1124): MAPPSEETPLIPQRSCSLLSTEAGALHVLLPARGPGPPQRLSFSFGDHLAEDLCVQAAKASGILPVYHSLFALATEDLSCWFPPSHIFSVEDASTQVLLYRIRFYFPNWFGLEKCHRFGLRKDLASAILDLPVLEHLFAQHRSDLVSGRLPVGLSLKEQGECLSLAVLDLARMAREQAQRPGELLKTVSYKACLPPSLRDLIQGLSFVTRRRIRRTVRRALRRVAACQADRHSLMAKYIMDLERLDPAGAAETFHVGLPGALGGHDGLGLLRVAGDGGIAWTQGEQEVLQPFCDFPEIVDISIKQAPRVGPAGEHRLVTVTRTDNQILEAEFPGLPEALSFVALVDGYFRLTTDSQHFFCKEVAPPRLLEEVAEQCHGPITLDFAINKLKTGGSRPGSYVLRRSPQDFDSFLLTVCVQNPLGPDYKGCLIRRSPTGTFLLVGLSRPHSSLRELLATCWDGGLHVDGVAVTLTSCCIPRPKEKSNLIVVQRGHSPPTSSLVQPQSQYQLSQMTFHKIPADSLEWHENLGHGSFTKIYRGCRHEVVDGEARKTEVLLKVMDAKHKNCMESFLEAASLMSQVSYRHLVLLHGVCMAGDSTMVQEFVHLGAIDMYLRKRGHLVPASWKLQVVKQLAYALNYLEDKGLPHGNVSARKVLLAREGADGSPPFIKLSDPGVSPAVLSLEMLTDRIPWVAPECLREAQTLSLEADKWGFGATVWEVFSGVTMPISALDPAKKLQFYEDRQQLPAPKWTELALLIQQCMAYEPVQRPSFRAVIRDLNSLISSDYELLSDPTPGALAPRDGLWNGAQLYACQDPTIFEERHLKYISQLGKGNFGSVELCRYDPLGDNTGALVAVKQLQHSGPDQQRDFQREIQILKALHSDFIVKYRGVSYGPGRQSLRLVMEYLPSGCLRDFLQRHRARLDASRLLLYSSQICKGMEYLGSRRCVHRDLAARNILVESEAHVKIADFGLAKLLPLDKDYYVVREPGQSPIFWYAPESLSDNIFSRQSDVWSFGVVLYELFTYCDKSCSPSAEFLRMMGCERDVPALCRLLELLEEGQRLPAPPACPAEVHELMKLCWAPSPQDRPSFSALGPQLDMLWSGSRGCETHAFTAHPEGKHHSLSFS
Method: All cell lines were obtained from the American Type Culture Collection and were maintained at 37° C. with 5% CO2. Ramos cell line was maintained in media supplemented with 10% fetal bovine serum, penicillin (100 units/mL) and streptomycin (100 μg/mL). NK-92 cell line was maintained in media supplemented with 10% fetal bovine serum and 10% horse serum, penicillin (100 units/mL) and streptomycin (100 μg/mL), IL-2 10 ng/mL. Goat F(ab′)2 Anti-Human IgM-UNLB was obtained from SouthernBiotech. IL-2 was obtained from Peprotech.
NK-92 cells were treated with compounds at the dosed indicated for 1 hour in incubator, followed by the IL-2 stimulation for 15 minutes. Cells were then collected and lysed to prepare the cellular extraction. Western blots were performed on cell lysate using Phospho-Jak3, Jak3, Phospho-Stat5, Stat5 antibodies (Cell Signaling Technology). The intensity of blotting band was acquired using Image Lab (Bio-Rad) software, and the IC50 of target was generated with GraphPad Prism.

[6] = molecular target: T4, free Btk protein from Ramos cells (Homo sapiens, UniProt Q06187); assay: Btk target site occupancy ELISA assay; conditions: 1 h, ELISA, read-out: Btk Occupancy Assay (IC50)
T4 construct: endogenous in cells; host or cells: Ramos cells (ATCC)
Method: (§1) Ramos cells were treated with Compound I-1 at indicated concentrations for 1 h, followed by stimulation with 6 μg/mL of IgM for 30 mm, and then lysed. Lysates were incubated with Compound I-21 (biotin labeled) at a final concentration of 1 μM in a PBS, 0.05% Tween-20, 1% BSA solution while shaking for 1 h at room temperature. Samples were transferred to a streptavidin-coated 96-well ELISA plate and mixed while shaking for 1 h at room temperature. The Btk antibody (BD 611116, 1:1000 dilution in PBS+0.05% Tween-20+0.5% BSA) was then applied and incubated for 1 h at room temperature. After wash, goat anti-mouse-HRP (Pierce 31432, 1:1000 dilution in PBS+0.05% Tween-20+0.5% BSA) was added and incubated for 1 h at room temperature. The ELISA was developed with addition of tetramethyl benzidine (TMB) followed by Stop Solution and read at OD 450 nm.
as §1, with “Compounds” for “Compound I-1”, “anti-IgM” for “IgM”, “diluted” for “dilution”, “tetramethylbenzidine” for “tetramethyl benzidine”

[7] = Btk Tyr223 phosphorylation, 45 min, 12 μg/mL IgM, read-out: BTK Inhibition

T1 sequence (Q06187 whole entry): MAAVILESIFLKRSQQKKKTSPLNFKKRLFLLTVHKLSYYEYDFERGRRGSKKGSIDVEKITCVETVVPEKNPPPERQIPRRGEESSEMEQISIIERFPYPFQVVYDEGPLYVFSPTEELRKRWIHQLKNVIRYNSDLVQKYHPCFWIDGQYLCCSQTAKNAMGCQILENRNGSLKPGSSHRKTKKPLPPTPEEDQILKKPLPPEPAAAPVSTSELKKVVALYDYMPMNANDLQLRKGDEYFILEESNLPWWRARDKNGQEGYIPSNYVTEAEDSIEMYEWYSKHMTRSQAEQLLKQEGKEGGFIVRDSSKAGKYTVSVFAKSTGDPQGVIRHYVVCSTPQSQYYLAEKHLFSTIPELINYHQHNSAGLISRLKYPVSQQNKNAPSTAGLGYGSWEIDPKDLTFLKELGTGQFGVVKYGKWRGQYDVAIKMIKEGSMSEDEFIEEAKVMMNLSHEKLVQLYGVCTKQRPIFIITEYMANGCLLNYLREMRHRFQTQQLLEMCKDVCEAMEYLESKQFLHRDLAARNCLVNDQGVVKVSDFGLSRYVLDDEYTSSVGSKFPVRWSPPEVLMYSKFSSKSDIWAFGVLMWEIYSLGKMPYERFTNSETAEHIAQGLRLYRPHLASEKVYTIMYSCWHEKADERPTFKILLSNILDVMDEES
T2 sequence (Q06187 whole entry): as above
T4 sequence (Q06187 whole entry): as above

Row | IC50 [1, 7] [nM] | IC50 ([1]; treated 45 mins, read-out: inhibition IC50 of the phosphorylation of BTK protein) [nM] | IC50 [3] [nM] | IC50 [4] [nM] | IC50 [5] [nM] | IC50 [6] [nM] | SMILES | reduction of the Btk Tyr223 phosphorylation in Ramos cells ([1]; western blot) | inhibition of BTK phosphorylation after compound removal (irreversibility) [2]
1 | < 10 | 5 | 200 to 400 | ≤ 10 | 200 to 400 | – | C=CC(=O)Nc1cccc(Oc2nc(Nc3ccc(N4CCN(C)CC4)c(F)c3)ncc2OC)c1 [Compound I-2, N-(3-(2-(3-fluoro-4-(4-methylpiperazin-1-yl)phenylamino)-5-methoxypyrimidin-4-yloxy)phenyl) acrylamide] | reduction of the Btk Tyr223 phosphorylation | remains inhibited up to 8 his; also recorded: long term effect of the inhibition was observed after compounds removal up to 8 hours; also recorded: remains inhibited up to 8 hrs; also recorded: irreversibly inhibited the BTK phosphorylation; also recorded: inhibited the Btk phosphorylation in Ramos cells after 8 hours of removal
2 | < 10 | – | 200 to 400 | ≤ 10 | – | 10 to 100 | C=CC(=O)Nc1cccc(Oc2nc(Nc3ccc(OCCOC)cc3)nc3[nH]ccc23)c1 [Compound I-10, N-(3-(2-(4-(2-methoxyethoxy)phenylamino)-7H-pyrrolo[2,3-d]pyrimidin-4-yloxy)phenyl)acrylamide] | – | –
3 | < 10 | – | ≥ 400 | ≤ 10 | – | ≤ 10 | C=CC(=O)Nc1cccc(Oc2nc(Nc3ccc(N[C@H]4CCN(CCF)C4)cc3)ncc2OC)c1 [Compound I-13, (S)—N-(3-(2-(4-(1-(2-fluoroethyl)pyrrolidin-3-ylamino)phenylamino)-5-methoxypyrimidin-4-yloxy)phenyl)acrylamide] | – | –
4 | – | – | ≥ 400 | ≤ 10 | ≥ 400 | ≤ 10 | C=CC(=O)Nc1cccc(Oc2nc(Nc3ccc(N4CCN(CCOC)CC4)cc3)ncc2OC)c1 [Compound I-25a, N-(3-(5-methoxy-2-(4-(4-(2-methoxyethyl)piperazin-1-yl)phenylamino)pyrimidin-4-yloxy)phenyl)acrylamide] | – | –
